Results as given in ChEMBL document CHEMBL4145589, “Aminoisoxazoles as Potent Inhibitors of Tryptophan 2,3-Dioxygenase 2 (TDO2)” (ACS Med Chem Lett, 2018).

What was measured:
[1] = Metabolic stability in dog whole blood assessed as parent compound remaining at 0.5 mM after 2 hrs by LC-MS/MS analysis; assay type: ADME, tissue-based, Canis lupus familiaris; conditions: read-out: Stability
SW48 = experiment: Cytotoxicity against human SW48 cells assessed as reduction in cell viability up to 25 uM by Cell Titer-Glo based luminescence assay
[2] = Metabolic stability in rat whole blood assessed as parent compound remaining at 0.5 mM after 2 hrs by LC-MS/MS analysis; assay type: ADME, tissue-based; conditions: read-out: Stability
[3] = Metabolic stability in human whole blood assessed as parent compound remaining at 0.5 mM after 2 hrs by LC-MS/MS analysis; assay type: ADME, tissue-based; conditions: read-out: Stability
[4] = target: T1, Tryptophan 2,3-dioxygenase (Homo sapiens, UniProt P48775); experiment: Inhibition of TDO2 in human SW48 cells assessed as decrease in conversion of tryptophan to N-formylkynurenine after 30 mins by fluorescence assay; assay type: cell-based
T1 sequence (P48775 whole entry): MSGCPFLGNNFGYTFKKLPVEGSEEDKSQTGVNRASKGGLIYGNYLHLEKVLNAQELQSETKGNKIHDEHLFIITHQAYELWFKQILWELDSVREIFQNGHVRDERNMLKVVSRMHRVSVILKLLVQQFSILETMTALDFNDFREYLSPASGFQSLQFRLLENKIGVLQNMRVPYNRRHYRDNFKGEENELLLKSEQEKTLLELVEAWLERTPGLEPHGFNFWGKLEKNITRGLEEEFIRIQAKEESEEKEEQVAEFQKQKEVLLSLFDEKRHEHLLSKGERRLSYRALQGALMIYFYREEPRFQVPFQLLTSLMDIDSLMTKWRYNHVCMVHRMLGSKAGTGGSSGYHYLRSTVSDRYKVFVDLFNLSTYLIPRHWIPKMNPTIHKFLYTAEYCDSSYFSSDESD

A 172 = experiment: Cytotoxicity against human A172 cells assessed as reduction in cell viability up to 25 uM by Cell Titer-Glo based luminescence assay
[5] = target: T1, Tryptophan 2,3-dioxygenase; experiment: Inhibition of recombinant human TDO2 assessed as decrease in conversion of L-tryptophan to N-formylkynurenine preincubated for 5 mins followed by 0.2 mM substrate addition measured after 15 mins by RapidFire mass spectrometry based fluorescence assay
[6] = target: T1, Tryptophan 2,3-dioxygenase; experiment: Competitive inhibition of recombinant human TDO2 assessed as decrease in conversion of L-tryptophan to N-formylkynurenine preincubated for 5 mins followed by 1 mM substrate addition measured after 15 mins by RapidFire mass spectrometry based fluorescence assay
Cytochrome P450 3A4 = Cytochrome P450 3A4 (Homo sapiens, UniProt P08684); experiment: Inhibition of CYP3A4 (unknown origin); assay type: ADME
Cytochrome P450 3A4, sequence (P08684 whole entry): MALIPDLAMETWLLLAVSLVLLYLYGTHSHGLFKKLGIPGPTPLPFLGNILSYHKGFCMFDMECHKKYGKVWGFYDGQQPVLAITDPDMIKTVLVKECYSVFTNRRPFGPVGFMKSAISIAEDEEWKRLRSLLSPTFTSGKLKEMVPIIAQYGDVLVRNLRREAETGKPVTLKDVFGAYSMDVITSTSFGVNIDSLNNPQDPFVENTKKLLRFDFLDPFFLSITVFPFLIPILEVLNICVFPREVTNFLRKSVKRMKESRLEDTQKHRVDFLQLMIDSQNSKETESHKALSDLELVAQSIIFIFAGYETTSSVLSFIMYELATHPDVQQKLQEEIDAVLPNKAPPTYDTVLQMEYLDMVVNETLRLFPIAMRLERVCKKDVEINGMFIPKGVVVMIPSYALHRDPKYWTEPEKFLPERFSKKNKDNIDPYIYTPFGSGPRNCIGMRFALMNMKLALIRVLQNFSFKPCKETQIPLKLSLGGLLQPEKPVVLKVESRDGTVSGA

[7] = Metabolic stability in dog whole blood assessed as parent compound remaining at 0.5 mM after 30 mins by LC-MS/MS analysis; assay type: ADME, tissue-based, Canis lupus familiaris; conditions: read-out: Stability
Cytochrome P450 2C19 = Cytochrome P450 2C19 (Homo sapiens, UniProt P33261); experiment: Inhibition of CYP2C19 (unknown origin); assay type: ADME
Cytochrome P450 2C19, sequence (P33261 whole entry): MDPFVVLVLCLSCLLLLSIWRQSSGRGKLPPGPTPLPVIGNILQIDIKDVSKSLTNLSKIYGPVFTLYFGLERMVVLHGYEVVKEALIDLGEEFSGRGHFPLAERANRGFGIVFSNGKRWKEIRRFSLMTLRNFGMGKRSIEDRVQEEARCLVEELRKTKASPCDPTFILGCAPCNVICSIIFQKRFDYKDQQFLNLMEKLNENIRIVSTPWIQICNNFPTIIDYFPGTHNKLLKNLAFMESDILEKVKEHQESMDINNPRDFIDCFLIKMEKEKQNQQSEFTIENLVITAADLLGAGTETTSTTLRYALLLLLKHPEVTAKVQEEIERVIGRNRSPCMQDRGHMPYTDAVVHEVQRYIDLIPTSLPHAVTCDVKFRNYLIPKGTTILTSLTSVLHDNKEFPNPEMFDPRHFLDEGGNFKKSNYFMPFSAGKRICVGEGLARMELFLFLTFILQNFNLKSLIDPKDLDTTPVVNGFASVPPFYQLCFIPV

Cytochrome P450 1A2 = target: T2, Cytochrome P450 1A2 (Homo sapiens, UniProt P05177); experiment: Inhibition of CYP1A2 (unknown origin); assay type: ADME
T2 sequence (P05177 whole entry): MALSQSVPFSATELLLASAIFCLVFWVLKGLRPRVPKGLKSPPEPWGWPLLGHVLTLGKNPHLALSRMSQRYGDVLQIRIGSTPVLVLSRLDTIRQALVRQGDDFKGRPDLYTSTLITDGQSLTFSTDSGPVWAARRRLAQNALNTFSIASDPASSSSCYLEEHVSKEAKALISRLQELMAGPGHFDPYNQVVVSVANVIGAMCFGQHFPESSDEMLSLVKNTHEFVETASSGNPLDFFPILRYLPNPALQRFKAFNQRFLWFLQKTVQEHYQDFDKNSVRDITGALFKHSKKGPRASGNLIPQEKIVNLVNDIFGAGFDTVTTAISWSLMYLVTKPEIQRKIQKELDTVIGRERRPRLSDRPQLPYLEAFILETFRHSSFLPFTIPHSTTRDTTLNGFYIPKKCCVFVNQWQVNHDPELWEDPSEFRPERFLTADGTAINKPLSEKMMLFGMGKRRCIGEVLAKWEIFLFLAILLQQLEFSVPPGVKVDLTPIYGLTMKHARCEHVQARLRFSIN

Cytochrome P450 2D6 = Cytochrome P450 2D6 (Homo sapiens, UniProt P10635); experiment: Inhibition of CYP2D6 (unknown origin); assay type: ADME
Cytochrome P450 2D6, sequence (P10635 whole entry): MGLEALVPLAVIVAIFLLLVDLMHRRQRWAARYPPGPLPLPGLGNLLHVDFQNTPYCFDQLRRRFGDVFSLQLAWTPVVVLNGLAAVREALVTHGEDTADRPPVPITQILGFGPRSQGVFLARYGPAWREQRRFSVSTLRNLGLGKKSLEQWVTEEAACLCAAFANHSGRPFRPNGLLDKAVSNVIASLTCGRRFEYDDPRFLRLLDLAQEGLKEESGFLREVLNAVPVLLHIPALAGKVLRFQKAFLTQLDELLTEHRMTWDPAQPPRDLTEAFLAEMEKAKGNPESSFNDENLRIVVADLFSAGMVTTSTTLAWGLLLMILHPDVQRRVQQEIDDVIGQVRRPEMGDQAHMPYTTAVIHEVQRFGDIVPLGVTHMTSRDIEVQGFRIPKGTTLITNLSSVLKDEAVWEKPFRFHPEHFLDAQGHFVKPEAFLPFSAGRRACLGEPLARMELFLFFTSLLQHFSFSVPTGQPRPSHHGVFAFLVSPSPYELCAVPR

[8] = Metabolic stability in rat whole blood assessed as parent compound remaining at 0.5 mM after 30 mins by LC-MS/MS analysis; assay type: ADME, tissue-based; conditions: read-out: Stability
Cytochrome P450 2C9 = Cytochrome P450 2C9 (Homo sapiens, UniProt P11712); experiment: Inhibition of CYP2C9 (unknown origin); assay type: ADME
Cytochrome P450 2C9, sequence (P11712 whole entry): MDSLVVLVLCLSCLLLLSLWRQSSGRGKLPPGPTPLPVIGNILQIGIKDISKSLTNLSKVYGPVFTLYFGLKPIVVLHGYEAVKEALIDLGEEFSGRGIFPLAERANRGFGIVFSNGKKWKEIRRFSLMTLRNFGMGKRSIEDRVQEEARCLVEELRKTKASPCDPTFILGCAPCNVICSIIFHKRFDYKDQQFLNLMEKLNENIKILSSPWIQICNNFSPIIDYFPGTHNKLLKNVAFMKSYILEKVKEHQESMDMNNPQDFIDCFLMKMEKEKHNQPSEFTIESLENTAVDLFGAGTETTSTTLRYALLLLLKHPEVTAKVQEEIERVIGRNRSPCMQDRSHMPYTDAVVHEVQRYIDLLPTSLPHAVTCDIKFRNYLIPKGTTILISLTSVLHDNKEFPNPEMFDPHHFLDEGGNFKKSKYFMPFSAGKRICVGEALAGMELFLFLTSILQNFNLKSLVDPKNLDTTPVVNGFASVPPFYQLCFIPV

For `CNc1oncc1-c1ccccc1`, the remaining at 2 h, 500 µM [1] was 0.1%, the Activity (SW48) was “Non-Toxic” and the remaining at 2 h, 500 µM [2] was 0.1%. For the same molecule, the remaining at 2 h, 500 µM [3] was 0.3%, the EC50 [4] was 0.67 µM and the Activity (A 172) was “Non-Toxic”. For the same molecule, the IC50 [5] was 0.19 µM.
With `Nc1snnc1-c1ccccc1` the Activity (SW48) was “Non-Toxic”, the EC50 [4] was > 25 µM and the Activity (A 172) was “Non-Toxic”. For the same molecule, the IC50 [5] was > 25 µM.
With `Nc1cnnn1-c1ccccc1` the Activity (SW48) was “Non-Toxic”, the EC50 [4] was > 25 µM and the Activity (A 172) was “Non-Toxic”. The IC50 [5] was > 25 µM.
In the case of `Nc1oncc1-c1cccc(Cl)c1`, the Activity (SW48) is reported as “Non-Toxic”, the EC50 [4] is reported as 0.25 µM and the Activity (A 172) is reported as “Non-Toxic”. For the same molecule, the IC50 [6] was 2.94 µM and the IC50 [5] was 0.5 µM.
In the case of `Nc1nnsc1-c1ccccc1`, the Activity (SW48) is reported as “Non-Toxic”, the EC50 [4] is reported as > 25 µM and the Activity (A 172) is reported as “Non-Toxic”. The IC50 [5] was 0.27 µM.
With `NC(=O)c1oncc1-c1ccccc1` the Activity (SW48) was “Non-Toxic”, the EC50 [4] was > 25 µM and the Activity (A 172) was “Non-Toxic”. For the same molecule, the IC50 [5] was > 25 µM.
In the case of `Cn1ncc(-c2ccccc2)c1N`, the Activity (SW48) is reported as “Non-Toxic”, the EC50 [4] is reported as > 25 µM and the Activity (A 172) is reported as “Non-Toxic”. For the same molecule, the IC50 [5] was > 25 µM.
For `Nc1oncc1-c1cccs1`, the Activity (SW48) was “Non-Toxic”, the EC50 [4] was 0.81 µM and the Activity (A 172) was “Non-Toxic”. The IC50 [5] was 0.029 µM.
In the case of `Nc1oncc1-c1ccsc1`, the IC50 (Cytochrome P450 3A4) is reported as > 10 µM, the Activity (SW48) is reported as “Non-Toxic” and the remaining at 0.5 h, 500 µM [7] is reported as 3%. The IC50 (Cytochrome P450 2C19) was > 10 µM, the EC50 [4] was 0.099 µM and the IC50 (Cytochrome P450 1A2) was > 10 µM. The IC50 (Cytochrome P450 2D6) was > 10 µM, the Activity (A 172) was “Non-Toxic” and the IC50 [5] was 0.028 µM. For the same molecule, the remaining at 0.5 h, 500 µM [8] was 3% and the IC50 (Cytochrome P450 2C9) was > 10 µM.
With `Nc1nncn1-c1ccccc1` the Activity (SW48) was “Non-Toxic”, the EC50 [4] was > 25 µM and the Activity (A 172) was “Non-Toxic”. For the same molecule, the IC50 [5] was > 25 µM.
In the case of `Cc1ccn(-c2cnoc2N)n1`, the Activity (SW48) is reported as “Non-Toxic”, the EC50 [4] is reported as 0.81 µM and the Activity (A 172) is reported as “Non-Toxic”. It also gave an IC50 [5] of 1.6 µM.
In the case of `Cc1cnn(-c2cnoc2N)c1`, the Activity (SW48) is reported as “Non-Toxic”, the EC50 [4] is reported as 0.34 µM and the Activity (A 172) is reported as “Non-Toxic”. The IC50 [5] was 1.6 µM.
For `Cc1noc(N)c1-c1ccccc1`, the remaining at 2 h, 500 µM [1] was 65%, the Activity (SW48) was “Non-Toxic” and the remaining at 2 h, 500 µM [2] was 50%. For the same molecule, the remaining at 2 h, 500 µM [3] was 84%, the EC50 [4] was 9.7 µM and the Activity (A 172) was “Non-Toxic”.
With `Nc1cnoc1-c1ccccc1` the Activity (SW48) was “Non-Toxic”, the EC50 [4] was > 25 µM and the Activity (A 172) was “Non-Toxic”. The IC50 [5] was > 25 µM.
For `Nc1oncc1-c1cccnc1`, the Activity (SW48) was “Non-Toxic”, the EC50 [4] was 1.4 µM and the Activity (A 172) was “Non-Toxic”. It also gave an IC50 [5] of 2.3 µM.
In the case of `Nc1oncc1-n1cccn1`, the IC50 (Cytochrome P450 3A4) is reported as > 10 µM, the Activity (SW48) is reported as “Non-Toxic” and the IC50 (Cytochrome P450 2C19) is reported as > 10 µM. The EC50 [4] was 0.23 µM, the IC50 (Cytochrome P450 1A2) was > 10 µM and the IC50 (Cytochrome P450 2D6) was > 10 µM. For the same molecule, the Activity (A 172) was “Non-Toxic”, the IC50 [5] was 0.29 µM and the IC50 (Cytochrome P450 2C9) was > 10 µM.
For `Nc1oncc1-c1ccc(F)cc1`, the Activity (SW48) was “Non-Toxic”, the EC50 [4] was 0.21 µM and the Activity (A 172) was “Non-Toxic”. For the same molecule, the IC50 [5] was 0.58 µM.
With `Nc1oncc1-n1cc(F)cn1` the IC50 (Cytochrome P450 3A4) was > 10 µM, the Activity (SW48) was “Non-Toxic” and the IC50 (Cytochrome P450 2C19) was > 10 µM. For the same molecule, the remaining at 2 h, 500 µM [3] was 91%, the EC50 [4] was 0.077 µM and the IC50 (Cytochrome P450 1A2) was > 10 µM. The IC50 (Cytochrome P450 2D6) was > 10 µM, the Activity (A 172) was “Non-Toxic” and the IC50 [5] was 0.34 µM. The IC50 (Cytochrome P450 2C9) was > 10 µM.
For `Nc1oncc1C1CCCCC1`, the Activity (SW48) was “Non-Toxic”, the EC50 [4] was 1.5 µM and the Activity (A 172) was “Non-Toxic”. The IC50 [5] was 7.8 µM.
With `OCc1oncc1-c1ccccc1` the Activity (SW48) was “Non-Toxic”, the EC50 [4] was 18 µM and the Activity (A 172) was “Non-Toxic”. For the same molecule, the IC50 [5] was 4.4 µM.
For `Nc1cnsc1-c1ccccc1`, the Activity (SW48) was “Non-Toxic”, the EC50 [4] was > 25 µM and the Activity (A 172) was “Non-Toxic”. For the same molecule, the IC50 [5] was > 25 µM.
With `CNC(=O)c1oncc1-c1ccccc1` the Activity (SW48) was “Non-Toxic”, the EC50 [4] was > 25 µM and the Activity (A 172) was “Non-Toxic”. For the same molecule, the IC50 [5] was > 25 µM.
In the case of `Nc1oncc1-c1ccccc1`, the IC50 (Cytochrome P450 3A4) is reported as > 10 µM, the remaining at 2 h, 500 µM [1] is reported as 0% and the Activity (SW48) is reported as “Non-Toxic”. The remaining at 2 h, 500 µM [2] was 0%, the IC50 (Cytochrome P450 2C19) was > 10 µM and the remaining at 2 h, 500 µM [3] was 0%. The EC50 [4] was 0.085 µM, the IC50 (Cytochrome P450 1A2) was > 10 µM and the IC50 (Cytochrome P450 2D6) was > 10 µM. The Activity (A 172) was “Non-Toxic”, the IC50 [5] was 0.14 µM and the IC50 (Cytochrome P450 2C9) was > 10 µM.
For `Nc1sncc1-c1ccccc1`, the Activity (SW48) was “Non-Toxic”, the EC50 [4] was > 25 µM and the Activity (A 172) was “Non-Toxic”. For the same molecule, the IC50 [5] was 18 µM.
For `c1ccc(-c2cnoc2)cc1`, the Activity (SW48) was “Non-Toxic”, the EC50 [4] was > 25 µM and the Activity (A 172) was “Non-Toxic”. The IC50 [5] was > 25 µM.
For `Nc1oncc1C1CCCC1`, the Activity (SW48) was “Non-Toxic”, the EC50 [4] was 0.36 µM and the Activity (A 172) was “Non-Toxic”. It also gave an IC50 [5] of 0.64 µM.
For `COc1cccc(-c2cnoc2N)c1`, the Activity (SW48) was “Non-Toxic”, the EC50 [4] was 1.5 µM and the Activity (A 172) was “Non-Toxic”. For the same molecule, the IC50 [5] was 3.1 µM.
For `Nc1[nH]ncc1-c1ccccc1`, the Activity (SW48) was “Non-Toxic”, the EC50 [4] was > 25 µM and the Activity (A 172) was “Non-Toxic”. The IC50 [5] was > 25 µM.
For `Nc1oncc1-c1ccc(Cl)cc1`, the Activity (SW48) was “Non-Toxic”, the EC50 [4] was 0.95 µM and the Activity (A 172) was “Non-Toxic”. It also gave an IC50 [6] of 4.21 µM and an IC50 [5] of 0.83 µM.
With `Nc1oncc1-c1ccccn1` the Activity (SW48) was “Non-Toxic”, the EC50 [4] was 0.82 µM and the Activity (A 172) was “Non-Toxic”. The IC50 [5] was 1.7 µM.
